Several values for one entry are separate records, joined by “and”; a condition that tells them apart may be missing. Equal values may be shown once. Read-outs that look alike come from different tables or passages of the source.
System: BCL-2 WT
Experiment: Steady-state competition SPR against immobilised BIMBH3 peptide, BCL-2 WT
Type: binding, human
Conditions: for Ki: BCL-2 WT
Experimental: SPR experiments were performed as previously described. […] The lowest concentrations used in direct binding experiments were 1 nM for BIAcore 4000 and 0.1 nM for BIAcore S200 instruments, concentrations below these were below the sensitivity thresholds for the instruments. […] Direct binding experiments were fitted to a 1:1 binding site kinetic model, fitting on and off rates, in BIAevaluation software. For competition experiments steady-state responses were determined in BIAevaluation software according to the software defaults in affinity evaluation mode averaging responses for 5 sec. […] All affinity measurements were performed in at least two independent experiments using independent protein preparations.

O=C(c1cc(-c2cc3c(cc2C(=O)N2Cc4ccccc4C[C@H]2CN2CCOCC2)OCO3)n2c1CCCC2)N(c1ccccc1)c1ccc(O)cc1 [S55746]
Raw data values in Figure 3f (SPR response) (S55746 concentration 40, BCL-2 concentration 40 nM, independent experiment 1): 75.4873 | Raw data values in Figure 3f (SPR response) (S55746 concentration 40, BCL-2 concentration 40 nM, independent experiment 2): 135.922 | Raw data values in Figure 3f (SPR response) (S55746 concentration 40, BCL-2 concentration 40 nM, independent experiment 3): 43.3243 | Raw data values in Figure 3f (SPR response) (S55746 concentration 40, BCL-2 concentration 50 nM, independent experiment 1): 78.7968 | Raw data values in Figure 3f (SPR response) (S55746 concentration 40, BCL-2 concentration 50 nM, independent experiment 3): 49.1674 | Raw data values in Figure 3f (SPR response) (S55746 concentration 40, BCL-2 concentration 60 nM, independent experiment 1): 84.5822 | Raw data values in Figure 3f (SPR response) (S55746 concentration 40, BCL-2 concentration 60 nM, independent experiment 3): 58.6901 | Raw data values in Figure 3f (SPR response) (S55746 concentration 40, BCL-2 concentration 70 nM, independent experiment 1): 88.5391 | Raw data values in Figure 3f (SPR response) (S55746 concentration 40, BCL-2 concentration 70 nM, independent experiment 3): 64.9952 | Raw data values in Figure 3f (SPR response) (S55746 concentration 40, BCL-2 concentration 80 nM, independent experiment 1): 89.9035 | Raw data values in Figure 3f (SPR response) (S55746 concentration 40, BCL-2 concentration 80 nM, independent experiment 3): 69.0967 | Raw data values in Figure 3f (SPR response) (S55746 concentration 40, BCL-2 concentration 100 nM, independent experiment 1): 92.2307 | Raw data values in Figure 3f (SPR response) (S55746 concentration 40, BCL-2 concentration 100 nM, independent experiment 3): 75.0006 | Raw data values in Figure 3f (SPR response) (S55746 concentration 40, BCL-2 concentration 150 nM, independent experiment 1): 94.9838 | Raw data values in Figure 3f (SPR response) (S55746 concentration 40, BCL-2 concentration 150 nM, independent experiment 3): 84.1638 | Raw data values in Figure 3f (SPR response) (S55746 concentration 40, BCL-2 concentration 200 nM, independent experiment 1): 96.8989 | Raw data values in Figure 3f (SPR response) (S55746 concentration 40, BCL-2 concentration 200 nM, independent experiment 3): 89.8321 | Raw data values in Figure 3f (SPR response) (S55746 concentration 60, BCL-2 concentration 10 nM, independent experiment 1): 3.3753 | Raw data values in Figure 3f (SPR response) (S55746 concentration 60, BCL-2 concentration 10 nM, independent experiment 3): 1.1233 | Raw data values in Figure 3f (SPR response) (S55746 concentration 60, BCL-2 concentration 20 nM, independent experiment 1): 7.929 | Raw data values in Figure 3f (SPR response) (S55746 concentration 60, BCL-2 concentration 20 nM, independent experiment 3): 2.648 | Raw data values in Figure 3f (SPR response) (S55746 concentration 60, BCL-2 concentration 30 nM, independent experiment 1): 13.853 | Raw data values in Figure 3f (SPR response) (S55746 concentration 60, BCL-2 concentration 30 nM, independent experiment 3): 4.966 | Raw data values in Figure 3f (SPR response) (S55746 concentration 60, BCL-2 concentration 40 nM, independent experiment 1): 26.5524 | Raw data values in Figure 3f (SPR response) (S55746 concentration 60, BCL-2 concentration 40 nM, independent experiment 3): 9.938 | Raw data values in Figure 3f (SPR response) (S55746 concentration 60, BCL-2 concentration 50 nM, independent experiment 1): 51.4643 | Raw data values in Figure 3f (SPR response) (S55746 concentration 60, BCL-2 concentration 50 nM, independent experiment 3): 23.6574 | Raw data values in Figure 3f (SPR response) (S55746 concentration 60, BCL-2 concentration 60 nM, independent experiment 1): 75.6075 | Raw data values in Figure 3f (SPR response) (S55746 concentration 60, BCL-2 concentration 60 nM, independent experiment 3): 44.7291 | Raw data values in Figure 3f (SPR response) (S55746 concentration 60, BCL-2 concentration 70 nM, independent experiment 1): 83.0032 | Raw data values in Figure 3f (SPR response) (S55746 concentration 60, BCL-2 concentration 70 nM, independent experiment 3): 55.5781 | Raw data values in Figure 3f (SPR response) (S55746 concentration 60, BCL-2 concentration 80 nM, independent experiment 1): 87.1926 | Raw data values in Figure 3f (SPR response) (S55746 concentration 60, BCL-2 concentration 80 nM, independent experiment 3): 62.5167 | Raw data values in Figure 3f (SPR response) (S55746 concentration 60, BCL-2 concentration 100 nM, independent experiment 1): 90.81 | Raw data values in Figure 3f (SPR response) (S55746 concentration 60, BCL-2 concentration 100 nM, independent experiment 3): 70.2062 | Raw data values in Figure 3f (SPR response) (S55746 concentration 60, BCL-2 concentration 150 nM, independent experiment 1): 94.4799 | Raw data values in Figure 3f (SPR response) (S55746 concentration 60, BCL-2 concentration 150 nM, independent experiment 3): 81.267 | Raw data values in Figure 3f (SPR response) (S55746 concentration 60, BCL-2 concentration 200 nM, independent experiment 1): 96.2757 | Raw data values in Figure 3f (SPR response) (S55746 concentration 60, BCL-2 concentration 200 nM, independent experiment 3): 87.9958 | Raw data values in Figure 3f (SPR response) (S55746 concentration 80, BCL-2 concentration 1 nM, independent experiment 2): 1.2215 | Raw data values in Figure 3f (SPR response) (S55746 concentration 80, BCL-2 concentration 3 nM, independent experiment 2): 2.493 | Raw data values in Figure 3f (SPR response) (S55746 concentration 80, BCL-2 concentration 4 nM, independent experiment 2): 3.639 | Raw data values in Figure 3f (SPR response) (S55746 concentration 80, BCL-2 concentration 6 nM, independent experiment 2): 4.673 | Raw data values in Figure 3f (SPR response) (S55746 concentration 80, BCL-2 concentration 8 nM, independent experiment 2): 5.6951 | Raw data values in Figure 3f (SPR response) (S55746 concentration 80, BCL-2 concentration 9 nM, independent experiment 2): 6.782 | Raw data values in Figure 3f (SPR response) (S55746 concentration 80, BCL-2 concentration 11 nM, independent experiment 2): 7.791 | Raw data values in Figure 3f (SPR response) (S55746 concentration 80, BCL-2 concentration 12 nM, independent experiment 2): 8.945 | Raw data values in Figure 3f (SPR response) (S55746 concentration 80, BCL-2 concentration 16 nM, independent experiment 2): 11.2715 | Raw data values in Figure 3f (SPR response) (S55746 concentration 80, BCL-2 concentration 24 nM, independent experiment 2): 17.5573 | Raw data values in Figure 3f (SPR response) (S55746 concentration 80, BCL-2 concentration 40 nM, independent experiment 2): 30.3087 | Ki (read-out: S55746 KI (mean), competition vs BIMBH3 SPR surface, mean ± SD, n ≥ 2): 0.36 nM and 0.356 nM | Ki (read-out: S55746 KI, single independent experiments, independent experiments 1-3): 0.358 nM and 0.372 nM and 0.338 nM

Reference: PMC6547681 (Nature Communications, 2019)
